Measured values published in ChEMBL document CHEMBL1123995, “N-sulfonyl imidates as a novel prodrug form for an ester function or a sulfonamide group” (J Med Chem, 1988).

Tests used:
Type in all cases: ADME
[1] = Half-life of hydrolysis at pH 6.0 at 37 degree C; conditions: buffer
[2] = Half life of 80% diluted human plasma with 0.01 M phosphate buffer of pH 7.4; conditions: 80% human plasma
[3] = Half-life of hydrolysis at pH 7.4 at 37 degree C; conditions: buffer
[4] = Half-life of hydrolysis at pH 4.0 at 37 degree C; conditions: buffer

| SMILES | half-life [1] [h] | half-life [2] [h] | half-life [3] [h] | half-life [4] [h] |
| --- | --- | --- | --- | --- |
| CCO/C=N\S(=O)(=O)c1ccc(C)cc1 | 0.02 | < 0.0167 | 0.0133 | – |
| CCO/C(=N\S(=O)(=O)c1ccc(C)cc1)c1ccccc1 | 3.67 | 0.333 | 2.92 | – |
| CCCC/C(=N/S(=O)(=O)c1ccc(C)cc1)OC | – | 0.467 | 2.67 | – |
| CCCO/C(=N\S(=O)(=O)c1ccc(C)cc1)c1ccccc1 | – | 0.333 | 2.92 | – |
| Cc1ccc(S(=O)(=O)/N=C(\OCC(=O)N(C)C)c2ccccc2)cc1 | – | 0.0333 | 2.4 | – |
| Cc1ccc(S(=O)(=O)/N=C(\OCCN(C)C)c2ccccc2)cc1.Cl | – | < 0.0167 | 0.045 | 0.583 |
| Cc1ccc(S(=O)(=O)/N=C(\OCCN2CCCCC2)c2ccccc2)cc1.Cl | – | < 0.0167 | 0.0217 | 0.583 |
| Cc1ccc(S(=O)(=O)/N=C(\OCCCN(C)C)c2ccccc2)cc1.Cl | – | 0.0667 | 0.183 | 0.883 |
| Cc1ccc(S(=O)(=O)/N=C(\OC2CCN(C)CC2)c2ccccc2)cc1.Cl | 1.5 | 0.6 | 1.48 | – |
| CO/C(C)=N\S(=O)(=O)c1ccc(C)cc1 | 2.5 | 0.135 | 1.38 | – |
| CCC/C(=N/S(=O)(=O)c1ccc(C)cc1)OC | – | 0.533 | 2.42 | – |
| CCOC(=NS(=O)(=O)c1ccc(C)cc1)OCC | – | 1.3 | 26.3 | – |
| CO/C(=N\S(=O)(=O)c1ccc(C)cc1)c1ccccc1 | – | 0.117 | 1.9 | – |
| CCO/C(CC)=N\S(=O)(=O)c1ccc(C)cc1 | – | 0.4 | 1.8 | – |
| Cc1ccc(S(=O)(=O)/N=C(\OCCN2CCCC2=O)c2ccccc2)cc1 | – | 0.08 | 1.25 | – |
| COC(=NS(=O)(=O)c1ccc(C)cc1)OC | 14.5 | 0.533 | 4.25 | – |
| Cc1ccc(S(=O)(=O)/N=C(\OC(C)C)c2ccccc2)cc1 | 23 | 3.25 | 17.4 | – |
| CCO/C(C)=N\S(=O)(=O)c1ccc(C)cc1 | 2.92 | 0.107 | 2.4 | – |
| Cc1ccc(S(=O)(=O)/N=C(\Oc2ccccc2C(=O)OCC(=O)N(C)C)c2ccccc2)cc1 | 1.55 | 0.01 | 1.52 | – |
